Experiments:
F508delCFTR [1] = target: T1, F508delCFTR (Homo sapiens, UniProt P13569, DEL508-508); test: Cell Surface Expression-Horse Radish Peroxidase (CSE-HRP) assay, test compound with co-corrector; assay type: cell-based; conditions: with 2 μM co-corrector; for Maximum % activity (with co-corrector): maximum at any tested concentration, normalized to positive control;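 for Maximum % activity (with co-corrector): percent of 2 µM positive control corrector over DMSO; co-corrector is that same compound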
T1 construct: expressed in transfected cells; host or cells: CFBE41o- human lung-derived epithelial cells (CFBE41o-F508delCFTR-HRP), doxycycline-inducible
Outline: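 Surface-expression read-out: luminol luminescence from an HRP tag in the fourth exofacial loop of F508delCFTR, in doxycycline-induced (0.5 μg/mL, 72 h) CFBE41o- cells. Compound plus 2 μM co-corrector added for 18-24 h at 33° C., 8-point 3-fold series up to 20 μM. EC50 from a sigmoidal fit with variable Hill slope, normalised to positive control, triplicate plates.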

F508delCFTR [2] = target: T1, F508delCFTR; test: Cell Surface Expression-Horse Radish Peroxidase (CSE-HRP) assay, test compound without co-corrector; assay type: cell-based; conditions: for Emax: maximum at any tested concentration, normalized to positive control, without co-corrector; for EC50: test compound without co-corrector;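 for Emax: percent of on-plate 2 µM positive control corrector response over DMSO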
Outline: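 Compound without co-corrector was tested at eight 3-fold concentrations, top 20 μM, for 18-24 h at 33° C on doxycycline-induced (0.5 μg/mL, 72 h) CFBE41o- F508delCFTR-HRP cells. After DPBS washes, luminol luminescence gave % activity relative to on-plate positive control minus DMSO; EC50 came from triplicate-plate sigmoidal fitting.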

T1 sequence (P13569 with tags, fused parts or gaps DEL508-508): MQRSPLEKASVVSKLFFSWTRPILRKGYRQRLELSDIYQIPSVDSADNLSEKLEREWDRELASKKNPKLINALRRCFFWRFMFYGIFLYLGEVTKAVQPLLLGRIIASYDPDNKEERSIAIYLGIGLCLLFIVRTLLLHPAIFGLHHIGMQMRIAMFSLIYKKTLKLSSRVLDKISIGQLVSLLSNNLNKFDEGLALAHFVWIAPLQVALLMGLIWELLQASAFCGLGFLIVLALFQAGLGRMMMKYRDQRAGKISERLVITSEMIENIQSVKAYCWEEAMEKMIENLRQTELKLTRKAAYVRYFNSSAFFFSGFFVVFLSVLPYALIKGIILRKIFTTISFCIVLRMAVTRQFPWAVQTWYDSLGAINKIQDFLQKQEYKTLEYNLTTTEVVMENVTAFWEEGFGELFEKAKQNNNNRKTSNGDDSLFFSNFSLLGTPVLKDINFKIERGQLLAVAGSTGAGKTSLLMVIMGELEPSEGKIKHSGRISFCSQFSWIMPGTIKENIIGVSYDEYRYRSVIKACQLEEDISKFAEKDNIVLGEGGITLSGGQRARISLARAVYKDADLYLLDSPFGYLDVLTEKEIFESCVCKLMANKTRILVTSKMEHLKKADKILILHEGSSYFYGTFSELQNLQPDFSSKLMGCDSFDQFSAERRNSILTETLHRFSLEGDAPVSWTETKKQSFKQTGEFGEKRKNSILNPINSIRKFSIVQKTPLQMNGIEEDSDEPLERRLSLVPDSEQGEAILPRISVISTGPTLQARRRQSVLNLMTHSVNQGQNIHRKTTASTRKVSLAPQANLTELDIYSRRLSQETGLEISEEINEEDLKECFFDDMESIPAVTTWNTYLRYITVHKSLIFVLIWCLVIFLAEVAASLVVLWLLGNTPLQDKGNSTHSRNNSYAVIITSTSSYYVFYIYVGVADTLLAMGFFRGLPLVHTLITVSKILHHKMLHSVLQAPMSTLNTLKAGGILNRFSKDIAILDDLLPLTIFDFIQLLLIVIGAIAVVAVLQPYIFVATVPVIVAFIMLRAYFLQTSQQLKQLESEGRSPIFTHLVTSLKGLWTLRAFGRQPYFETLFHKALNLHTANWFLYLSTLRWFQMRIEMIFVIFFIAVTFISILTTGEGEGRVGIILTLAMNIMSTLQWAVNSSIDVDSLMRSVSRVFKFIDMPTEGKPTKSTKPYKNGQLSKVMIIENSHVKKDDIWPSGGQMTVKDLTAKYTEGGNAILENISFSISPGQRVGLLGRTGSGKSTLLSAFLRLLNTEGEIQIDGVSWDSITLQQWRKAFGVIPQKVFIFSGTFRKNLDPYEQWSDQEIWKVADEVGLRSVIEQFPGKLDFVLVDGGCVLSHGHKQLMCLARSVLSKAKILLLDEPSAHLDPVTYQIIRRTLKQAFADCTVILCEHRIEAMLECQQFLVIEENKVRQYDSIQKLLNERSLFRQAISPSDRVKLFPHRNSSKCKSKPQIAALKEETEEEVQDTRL

| Structure (SMILES) | Maximum % activity (with co-corrector) (F508delCFTR [1]) | EC50 (F508delCFTR [1]) | Emax (F508delCFTR [2]) | EC50 (F508delCFTR [2]) |
| --- | --- | --- | --- | --- |
| COc1ccc(Br)c2c1C(C(=O)NS(=O)(=O)c1cccc3ncccc13)CCC2 (centres unmarked) [Example I-50, 5-bromo-8-methoxy-N-(quinoline-5-sulfonyl)-1,2,3,4-tetrahydronaphthalene-1-carboxamide] | +++ (≥350) | < 3 µM | ≥ 150% | < 3 µM |
| COc1ccc(Br)c2c1[C@@H](C(=O)NS(=O)(=O)c1cccc3ccccc13)CC2 [Example I-51, (1S)-4-bromo-7-methoxy-N-(naphthalene-1-sulfonyl)-2,3-dihydro-1H-indene-1-carboxamide] | ++ (≥150 and <350) | 3 to 10 µM | 50 to 150% | 3 to 10 µM |
| COc1ccc(Br)c2c1[C@H](C(=O)NS(=O)(=O)c1cccc3ccccc13)CC2 [Example I-52, (1R)-4-bromo-7-methoxy-N-(naphthalene-1-sulfonyl)-2,3-dihydro-1H-indene-1-carboxamide] | +++ (≥350) | < 3 µM | ≥ 150% | < 3 µM |
| CCOc1ccc(Br)c2c1C(C(=O)NS(=O)(=O)c1cccc3ccccc13)CC2 (centres unmarked) [Example I-53, 4-bromo-7-ethoxy-N-(naphthalene-1-sulfonyl)-2,3-dihydro-1H-indene-1-carboxamide] | +++ (≥350) | < 3 µM | ≥ 150% | < 3 µM |
| CC(C)Oc1ccc(Br)c2c1C(C(=O)NS(=O)(=O)c1cccc3ccccc13)CC2 (centres unmarked) [Example I-54] | +++ (≥350) | < 3 µM | ≥ 150% | 3 to 10 µM |
| O=C(NS(=O)(=O)c1cccc2ccccc12)C1CCc2c(Br)ccc(OCC3CC3)c21 (centres unmarked) [Example I-55, 4-bromo-7-(cyclopropylmethoxy)-N-(naphthalene-1-sulfonyl)-2,3-dihydro-1H-indene-1-carboxamide] | +++ (≥350) | < 3 µM | ≥ 150% | < 3 µM |
| COc1ccc(Br)c2c1CCCC2C(=O)NS(=O)(=O)c1cccc2ncccc12 (centres unmarked) [Example I-56, 8-bromo-5-methoxy-N-(quinoline-5-sulfonyl)-1,2,3,4-tetrahydronaphthalene-1-carboxamide] | +++ (≥350) | < 3 µM | ≥ 150% | < 3 µM |
| COc1ccc(-c2ccc(C)cc2)c2c1CCCC2C(=O)NS(=O)(=O)c1cccc2ccccc12 (centres unmarked) [Example I-57, 5-methoxy-8-(4-methylphenyl)-N-(naphthalene-1-sulfonyl)-1,2,3,4-tetrahydronaphthalene-1-carboxamide] | +++ (≥350) | < 3 µM | ≥ 150% | < 3 µM |
| O=C(NS(=O)(=O)c1cccc2ccccc12)C1CCc2c(Br)ccc(OC(F)F)c21 (centres unmarked) [Example I-58, 4-bromo-7-(difluoromethoxy)-N-(naphthalene-1-sulfonyl)-2,3-dihydro-1H-indene-1-carboxamide] | +++ (≥350) | < 3 µM | ≥ 150% | < 3 µM |
| COc1ccc(Cl)c2c1C(C(=O)NS(=O)(=O)c1cccc3ccccc13)CC2 (centres unmarked) [Example I-59, 4-chloro-7-methoxy-N-(naphthalene-1-sulfonyl)-2,3-dihydro-1H-indene-1-carboxamide] | +++ (≥350) | < 3 µM | ≥ 150% | 3 to 10 µM |
| COc1ccc(C2CCC2)c2c1CCC[C@@H]2C(=O)NS(=O)(=O)c1cccc2ccccc12 [Example I-60, (1S)-8-cyclobutyl-5-methoxy-N-(naphthalene-1-sulfonyl)-1,2,3,4-tetrahydronaphthalene-1-carboxamide] | +++ (≥350) | < 3 µM | ≥ 150% | < 3 µM |
| COc1ccc(C2CCC2)c2c1CCC[C@H]2C(=O)NS(=O)(=O)c1cccc2ccccc12 [Example I-61, (1R)-8-cyclobutyl-5-methoxy-N-(naphthalene-1-sulfonyl)-1,2,3,4-tetrahydronaphthalene-1-carboxamide] | +++ (≥350) | < 3 µM | ≥ 150% | < 3 µM |
| CC[C@]1(C(=O)NS(=O)(=O)c2cccc3ccccc23)CCCc2cccc(Cl)c21 [Example I-64, (1S)-8-chloro-1-ethyl-N-(naphthalene-1-sulfonyl)-1,2,3,4-tetrahydronaphthalene-1-carboxamide] | +++ (≥350) | < 3 µM | ≥ 150% | < 3 µM |
| CC[C@@]1(C(=O)NS(=O)(=O)c2cccc3ccccc23)CCCc2cccc(Cl)c21 [Example I-65, (1R)-8-chloro-1-ethyl-N-(naphthalene-1-sulfonyl)-1,2,3,4-tetrahydronaphthalene-1-carboxamide] | +++ (≥350) | < 3 µM | ≥ 150% | < 3 µM |
| CCC1(C(=O)NS(=O)(=O)c2cccc3ccn(C)c23)CCc2c(Cl)cccc21 (centres unmarked) [Example I-66, 4-chloro-1-ethyl-N-(1-methyl-1H-indole-7-sulfonyl)-2,3-dihydro-1H-indene-1-carboxamide] | +++ (≥350) | < 3 µM | ≥ 150% | < 3 µM |
| COc1ccc(CC(C)C)c2c1CCCC2C(=O)NS(=O)(=O)c1cccc2ccccc12 (centres unmarked) [Example I-67, 5-methoxy-8-(2-methylpropyl)-N-(naphthalene-1-sulfonyl)-1,2,3,4-tetrahydronaphthalene-1-carboxamide] | +++ (≥350) | < 3 µM | ≥ 150% | < 3 µM |
| COc1ccc(CC(C)C)c2c1C(C(=O)NS(=O)(=O)c1cccc3ccccc13)CCC2 (centres unmarked) [Example I-68, 8-methoxy-5-(2-methylpropyl)-N-(naphthalene-1-sulfonyl)-1,2,3,4-tetrahydronaphthalene-1-carboxamide] | +++ (≥350) | < 3 µM | ≥ 150% | < 3 µM |
| COc1ccc(C2CCC2)c2c1C(C(=O)NS(=O)(=O)c1cccc3ccccc13)CCC2 (centres unmarked) [Example I-69, 5-cyclobutyl-8-methoxy-N-(naphthalene-1-sulfonyl)-1,2,3,4-tetrahydronaphthalene-1-carboxamide] | +++ (≥350) | < 3 µM | ≥ 150% | < 3 µM |
| COc1ccc(Cl)c2c1C(C(=O)NS(=O)(=O)c1cccc3ccccc13)CCC2 (centres unmarked) [Example I-70, 5-chloro-8-methoxy-N-(naphthalene-1-sulfonyl)-1,2,3,4-tetrahydronaphthalene-1-carboxamide] | +++ (≥350) | < 3 µM | ≥ 150% | < 3 µM |
| COc1ccc(Cl)c2c1[C@@H](C(=O)NS(=O)(=O)c1cccc3ccccc13)CC2 [Example I-71, (1S)-4-chloro-7-methoxy-N-(naphthalene-1-sulfonyl)-2,3-dihydro-1H-indene-1-carboxamide] | ++ (≥150 and <350) | 3 to 10 µM | 50 to 150% | 3 to 10 µM |
| COc1ccc(Cl)c2c1[C@H](C(=O)NS(=O)(=O)c1cccc3ccccc13)CC2 [Example I-72, (1R)-4-chloro-7-methoxy-N-(naphthalene-1-sulfonyl)-2,3-dihydro-1H-indene-1-carboxamide] | +++ (≥350) | < 3 µM | ≥ 150% | 3 to 10 µM |
| COc1ccc(OC)c2c1CCCC2C(=O)NS(=O)(=O)c1cccc2ccccc12 (centres unmarked) [Example I-73, 5,8-dimethoxy-N-(naphthalene-1-sulfonyl)-1,2,3,4-tetrahydronaphthalene-1-carboxamide] | +++ (≥350) | < 3 µM | ≥ 150% | 3 to 10 µM |
| CCC1(C(=O)NS(=O)(=O)c2cccc3c2ccn3C)CCc2c(Cl)cccc21 (centres unmarked) [Example I-74, 4-chloro-1-ethyl-N-(1-methyl-1H-indole-4-sulfonyl)-2,3-dihydro-1H-indene-1-carboxamide] | +++ (≥350) | < 3 µM | ≥ 150% | 3 to 10 µM |
| COc1ccc(C)c2c1C(C(=O)NS(=O)(=O)c1cccc3ccccc13)CC2 (centres unmarked) [Example I-75, 7-methoxy-4-methyl-N-(naphthalene-1-sulfonyl)-2,3-dihydro-1H-indene-1-carboxamide] | +++ (≥350) | < 3 µM | ≥ 150% | < 3 µM |
| COc1ccc(C2CCC2)c2c1C(C(=O)NS(=O)(=O)c1cccc3ccccc13)CC2 (centres unmarked) [Example I-76, 4-cyclobutyl-7-methoxy-N-(naphthalene-1-sulfonyl)-2,3-dihydro-1H-indene-1-carboxamide] | +++ (≥350) | < 3 µM | ≥ 150% | 3 to 10 µM |
| COc1ccc(C2CCC2)c2c1C(C(=O)NS(=O)(=O)c1cccc3ncccc13)CC2 (centres unmarked) [Example I-77, 4-cyclobutyl-7-methoxy-N-(quinoline-5-sulfonyl)-2,3-dihydro-1H-indene-1-carboxamide] | +++ (≥350) | < 3 µM | ≥ 150% | 3 to 10 µM |

Reference: US20180244611A1, “Modulators of the Cystic Fibrosis Transmembrane Conductance Regulator Protein and Methods of Use” (AbbVie S.à.r.l., priority 2017, published 2018)
